Assay results as given in patent US9057725B2, “Composition for diagnosing, treating, and preventing liver disease” (SNU R&DB Foundation, priority 2010, dated 2015).
“Also recorded” adds a separate entry of the source.

Legend:
[1] = tested on: AML12 cells; assay: TM4SF5 expression and EMT induced by TGFβ in AML12 cells; type: cell-based, mouse
Protocol: (§1) AML12 cells (ATCC, USA), the normal mouse hepatocytes, and Chang cells (ATCC, USA), the normal human hepatocytes, cultured in DMEM supplemented with 10% FBS were washed with serum-free DMEM, which were maintained as serum-free status for 4 hours. After serum starvation, the cells were treated with TGFβ (2.5 ng/ml), followed by further culture for 24 hours. At last, cell extracts were prepared.
TM4SF5 protein expression was increased in those extracts, confirmed by immunoblotting and immunofluorescence assay using antibodies against pSmad3, pSmad2 (Cell Signaling Technology, Danvers, Mass.), vimentin (Sigma-Aldrich), E-adherin (Santa Cruz Biotechnology, Santa Cruz, Calif.), and TM4SF5 (Sin-Ae Lee et al., J. Clin. Invest. 2008 April; 118(4):1354-66). The nucleotide sequence of TM4SF5 antibody was confirmed by using pGEX-5X2 vector (Amersham) comprising c-terminal of TM4SF5 (the region from the 229th nucleotide residue to the 594th nucleotide residue, digested with EcoR1). To obtain recombinant protein induced by IPTG from DH5a bacteria, PBS comprising 0.3% SDS and protease inhibitor was used. After protein extraction, antigen was extracted from electrophoresed SDS gel, followed by immunizing mice with that. After immune response was induced three times in total, serum was obtained from the mice. Immunoreactivity of the serum with recombinant protein and animal cell extract was investigated.
As a result, as shown in FIG. 3 and FIG. 5, when AML12 cells were treated with TGFβ, TM4SF5 expression was increased. In addition, EMT (epithelial-mesenchymal transition) was induced by the increases of α-SMA and vimentin and the decrease of E-cadherin. It was also confirmed by immunoblotting that the expression of E-cadherin, which is important for cell-cell contact, was reduced, but the expression of vimentin, the mesenchymal cell marker, was increased. In the meantime, according to immunofluorescence assay, the cells were placed on cover glass coated with fibronectin (10 μg/ml) to perform immunofluorescence staining, followed by treating with TGFβ. Upon completion of immunofluorescence staining with vimentin antibody, the cover glass was observed under fluorescence microscope. As a result, vimentin expression was increased, compared with the control treated with vehicle (PBS, phosphate saline buffer) only without TGFβ, and EMT was confirmed by dispersed cell pattern (FIG. 3).

[2] = tested on: human TM4SF5 promoter; assay: Luciferase reporter gene assay with TM4SF5 promoter in Huh7, HepG2 and SNU16mAd cells; type: cell-based
Protocol: Particularly, Huh7 and HepG2 (liver cancer cell lines), and SNU16mAd (stomach cancer cell line) were transfected with pBabe-galactosidase (Choi et al., 2009, Blood 113:1845-1855) containing pGL3-human TM4SF5 promoter prepared by inserting genomic fragment of TM4SF5 upstream promoter located approximately −3 kb ahead of TM4SF5 gene in pGL3 luciferase vector (Promega), followed by harvesting 24 hours later. Then, luciferase activity of the reporter gene was measured. Infection efficiency was confirmed by measuring beta-galactosidase activity, followed by quantification after normalization. […] Unlike pGL3-TM4SF5 that was the construct harboring TM4SF5 promoter region whose transcriptional activity could be confirmed, pGL3-basic was the construct without the promoter, meaning transcription would not be activated, which was thereby used as the control (FIG. 2).

[3] = tested on: Chang cells; assay: TM4SF5 expression and EMT induced by TGFβ in Chang cells; type: cell-based, human
Protocol: as §1
Chang cells, the normal human hepatocytes, were treated with TGFβ, followed by immunoblotting. As a result, it was confirmed that TM4SF5 expression was induced. From the comparison of cellular morphology, it was also confirmed that cell-cell contact became weak, compared with the control treated with vehicle (PBS) only without TGFβ, and EMT was induced, and the expression of α-SMA, the mesenchymal cell marker, was increased (FIG. 4).
In addition, Chang cells, the normal human hepatocytes, were treated with TGFβ at different concentrations of 0, 2.5 and 5 ng/ml, followed by immunoblotting. […] EGFR signal transduction system was also activated, confirmed by using antibodies against phospho-Y^1173EGFR (Santa Cruz Biotechnology, Santa Cruz, Calif.), EGFR (Santa Cruz Biotechnology, Santa Cruz, Calif.), phospho-Erk, phospho-Smad2, phospho-Smad3 (Cell Signaling Technology, Danvers, Mass.), and α-tubulin (Sigma-Aldrich) (FIG. 5).

[4] = tested on: Chang cells; assay: TM4SF5 expression and EGFR signal transduction system over treatment times of TGFβ and EGF in Chang cells; type: cell-based, human; conditions: TGFβ (2.5 ng/ml) and EGF (50 ng/ml), 0, 0.5, 1, 2, and 24 hours
Protocol: Chang cells were cultured in DMEM supplemented with 10% FBS, which were then washed with serum-free DMEM. The cells were maintained as serum-free status for 4 hours. […] Then, TM4SF5 expression and EGFR signal transduction system were investigated.

[5] = tested on: TM4SF5 expression; assay: TM4SF5 expression mediated by conditioned medium of LX2 cells in AML12 cells with AG1478; type: cell-based, mouse; conditions: AG1478 100 nM, 24 hours
Protocol: Particularly, one hour before the treatment of conditioned medium of LX2 cells to AML12 cells, AG1478 (100 nM) was added to the medium to inhibit EGFR kinase activity, leading to the suppression of EGFR signaling, which was then treated to AML12 cells, followed by further culture for 24 hours.

[6] = tested on: TM4SF5 expression; assay: TGFβ mediated TM4SF5 expression in AML12 cells with EGFR inhibitor, Western blotting and optical microscope; type: cell-based, mouse
Protocol: Particularly, AML12 cells were cultured in DMEM supplemented with 10% FBS, which were then washed with serum-free DMEM. The cells were maintained as serum-free status for 4 hours. After serum starvation, the cells were treated with DMSO (control vehicle) and AG1478 (100 nM) 30 minutes before the treatment of TGFβ (2.5 ng/ml) in order to inhibit EGFR signaling. After the treatment of TGFβ (R&D systems, Minneapolis, Minn., USA), the cells were further cultured for 24 more hours.
Western blotting was performed with antibodies against phospho-Y^1173EGFR (Santa Cruz Biotechnology, Santa Cruz, Calif.), phospho-Y^992EGFR (Cell Signaling Technology, Danvers, Mass.), phospho-Erk (Cell Signaling Technology, Danvers, Mass.), phospho-Smad2 (Cell Signaling Technology, Danvers, Mass.), phospho-Smad3 (Cell Signaling Technology, Danvers, Mass.), TM4SF5, and α-tubulin (Sigma-Aldrich) to investigate the expressions of TM4SF5 and EGFR signal transduction system related factors.
(2) AML12 cells were cultured in DMEM supplemented with 10% FBS, which were then washed with serum-free DMEM. The cells were maintained as serum-free status for 4 hours. After serum starvation, the cells were treated with various inhibitors such as PD98059 (MEK inhibitor, LC Laboratories, Woburn, Mass.), LY294002 (PI3K inhibitor), PP2, PP3 (src inhibitor, Tocris Cookson, Avonmouth, UK), Rapamycin (mTOR inhibitor), GF109203 (PKC inhibitor, Calbiochem, San Diego, Calif.), AG1478 (EGFR inhibitor, LC Laboratories, Woburn, Mass.), U0126 (ERK1/2 inhibitor, LC Laboratories, Woburn, Mass.), SP600125 (Jnk inhibitor), and Y-27632 (ROCK inhibitor, Calbiochem, San Diego, Calif.) 30 minutes before the treatment of TGFβ (2.5 ng/ml). Then, TM4SF5 expression was examined. As a result, TM4SF5 expression was reduced by AG1478 under the near death condition (the condition in which phospho-Y^397 FAK level was high) (FIG. 8).

[7] = tested on: TM4SF5 expression; assay: TGFβ mediated TM4SF5 expression in Chang cells infected with Smad adenoviruses with AG1478; type: cell-based, human; conditions: group treated with Smad2 and Smad4 adenoviruses, AG1478 1 hour before TGFβ, 24 hours
Protocol: In addition, Chang cells were infected with Smad2, Smad3, and Smad4 adenoviruses for 24 hours, followed by serum starvation for 24 hours. After serum starvation, the cells were treated with AG1478 1 hour before the treatment of TGFβ in order to inhibit EGFR signaling. After the treatment of TGFβ, the cells were further cultured for 24 more hours. Then, the protein in the cell extract was quantified, followed by Western blotting. As a result, it was confirmed that TGFβ mediated TM4SF5 expression was reduced by AG1478 in the group treated with Smad2 and Smad4 adenoviruses.

[8] = Chang cells, 0, 2.5 and 5 ng/ml

| Molecule | EMT (epithelial-mesenchymal transition) ([1]; TGFβ 2.5 ng/ml, 24 hours) | TM4SF5 expression ([1]; TGFβ 2.5 ng/ml, 24 hours) | E-cadherin expression ([1]; immunoblotting) | vimentin expression ([1]; immunoblotting) | transcriptional activity of TM4SF5 promoter region (luciferase) [2] | α-SMA expression ([3]; Chang cells) | EGFR signal transduction system [3, 8] | TM4SF5 protein expression at different TGFβ concentrations [3, 8] | cell-cell contact ([3]; Chang cells, compared with vehicle (PBS)) | TM4SF5 expression ([3]; Chang cells, immunoblotting) | EGFR signal transduction system activation and TM4SF5 expression over time [4] | TM4SF5 expression mediated by conditioned medium of LX2 cells [5] | cell-cell contact (TGFβ mediated cell dispersion, cell morphology change) ([6]; AML12 cells, AG1478 100 nM, TGFβ 2.5 ng/ml, optical microscope) | TGFβ mediated TM4SF5 expression ([6]; AML12 cells, inhibitor 30 minutes before TGFβ (2.5 ng/ml), AG1478 100 nM, 24 hours) | TGFβ signaling Smad2 activation ([6]; suppression of EGFR activation by AG1478) | TGFβ mediated TM4SF5 expression [7] |
| --- | --- | --- | --- | --- | --- | --- | --- | --- | --- | --- | --- | --- | --- | --- | --- | --- |
| TGFβ: transforming growth factor β, a multi-functional cytokine (R&D systems) | induced | increased | reduced | increased | increased | increased | activated | increased TGFβ dose-dependently | became weak | induced | induced continuously |  |  |  |  |  |
| COc1cc2ncnc(Nc3cccc(Cl)c3)c2cc1OC [AG1478] |  |  |  |  |  |  |  |  |  |  |  | reduced; also recorded: not increased any more | maintained; also recorded: suppressed | decreased; also recorded: reduced; also recorded: suppressed | did not affect | reduced |
